According to patent publication US9631170B2, “Genetically inducible hydrogen peroxide resistance and production” (University of Wyoming, priority 2011, dated 2017):

What was measured:
[1] = system: Synechococcus elongatus PCC 7942; details: non-linear regression of dose response data, FIG. 11; wild type vs insertional katG null mutant
Experimental: These experiments generate dose response curves for growth versus H2O2-based algaecide concentration. […] EC50 for growth rate is determined from non-linear regression curves fitted to growth rate data from 5-7 experimental replicates at 5 to 7 stress doses. To fit curves, non-linear regressions are applied to the dose response data and the fit of the regression curve to the log-logistic equation will be F-tested.
One of these strains was a wild type (WT) and one was an insertional null mutant for the major cyanobacterial catalase encoded by the katG gene.

plant chloroplasts = details: H2O2 concentrations as low as 10 μM; cited from earlier work

## OO [H2O2, hydrogen peroxide]
[1]
  resistance to exogenous H2O2 of wild type relative to katG null mutant lacking catalase activity: ~2 fold
Plant chloroplasts
  decrease of photosynthetic carbon fixation: 50%
